Test results as given in ChEMBL document CHEMBL3044671, “Synthesis and in vitro antimicrobial and anti-tubercular evaluation of some quinoline-based azitidinone and thiazolidinone analogues” (2013).
Values after ≈ are worked out from the molar mass of the structure shown.

How the values were obtained:
Format in all cases: functional
[1] = tested on: Escherichia coli; test: Antimicrobial activity against Escherichia coli MTCC 739 assessed as growth inhibition by agar streak dilution method
[2] = tested on: Aspergillus niger; test: Antimicrobial activity against Aspergillus niger MTCC 282 assessed as growth inhibition by agar streak dilution method
[3] = tested on: Pseudomonas aeruginosa; test: Antimicrobial activity against Pseudomonas aeruginosa MTCC 741 assessed as growth inhibition by agar streak dilution method
[4] = tested on: Candida albicans; test: Antimicrobial activity against Candida albicans MTCC 183 assessed as diameter of growth zone inhibition by agar streak dilution method; further: test concentration or dose not given here
[5] = tested on: Staphylococcus aureus; test: Antimicrobial activity against Staphylococcus aureus MTCC 96 assessed as growth inhibition by agar streak dilution method
[6] = tested on: Escherichia coli; test: Antimicrobial activity against Escherichia coli MTCC 739 assessed as diameter of growth zone inhibition by agar streak dilution method; further: test concentration or dose not given here
[7] = tested on: Bacillus subtilis; test: Antimicrobial activity against Bacillus subtilis MTCC 430 assessed as growth inhibition by agar streak dilution method
[8] = tested on: Bacillus subtilis; test: Antimicrobial activity against Bacillus subtilis MTCC 430 assessed as diameter of growth zone inhibition by agar streak dilution method; further: test concentration or dose not given here
[9] = tested on: Candida albicans; test: Antimicrobial activity against Candida albicans MTCC 183 assessed as growth inhibition by agar streak dilution method
[10] = tested on: Mycobacterium tuberculosis; test: Antitubercular activity against Mycobacterium tuberculosis H37Rv assessed as growth inhibition by BACTEC MGIT method
[11] = tested on: Staphylococcus aureus; test: Antimicrobial activity against Staphylococcus aureus MTCC 96 assessed as diameter of growth zone inhibition by agar streak dilution method; further: test concentration or dose not given here
[12] = tested on: Aspergillus niger; test: Antimicrobial activity against Aspergillus niger MTCC 282 assessed as diameter of growth zone inhibition by agar streak dilution method; further: test concentration or dose not given here
[13] = tested on: Pseudomonas aeruginosa; test: Antimicrobial activity against Pseudomonas aeruginosa MTCC 741 assessed as diameter of growth zone inhibition by agar streak dilution method; further: test concentration or dose not given here

Compound | MIC [1] [µg/mL] | MIC [2] [µg/mL] | MIC [3] [µg/mL] | diameter of the inhibition zone (DIZ) [4] [mm] | MIC [5] [µg/mL] | diameter of the inhibition zone (DIZ) [6] [mm] | MIC [7] [µg/mL] | diameter of the inhibition zone (DIZ) [8] [mm] | MIC [9] [µg/mL] | MIC [10] [µg/mL] | diameter of the inhibition zone (DIZ) [11] [mm] | diameter of the inhibition zone (DIZ) [12] [mm] | diameter of the inhibition zone (DIZ) [13] [mm]
O=C1C(Cl)C(c2cc3ccccc3nc2S)N1c1ccccc1 (stereo unspecified) | 100 (≈ 293 µM) | 100 (≈ 293 µM) | 100 (≈ 293 µM) | <10 | 100 (≈ 293 µM) | <10 | 100 (≈ 293 µM) | 17 | 100 (≈ 293 µM) | 1000 (≈ 2930 µM) | 17 | <10 | <10
Cc1ccccc1N1C(=O)C(Cl)C1c1cc2ccccc2nc1S (stereo unspecified) | 100 (≈ 282 µM) | 100 (≈ 282 µM) | 100 (≈ 282 µM) | 20 | 62.5 (≈ 176 µM) | <10 | 100 (≈ 282 µM) | <10 | 100 (≈ 282 µM) | 500 (≈ 1410 µM) | 21 | 18 | 19
Cc1cccc(N2C(=O)C(Cl)C2c2cc3ccccc3nc2S)c1 (stereo unspecified) | 100 (≈ 282 µM) | 100 (≈ 282 µM) | 100 (≈ 282 µM) | 18 | 100 (≈ 282 µM) | 17 | 100 (≈ 282 µM) | 18 | 100 (≈ 282 µM) | 500 (≈ 1410 µM) | 19 | 19 | <10
Cc1ccc(N2C(=O)C(Cl)C2c2cc3ccccc3nc2S)cc1 (stereo unspecified) | 100 (≈ 282 µM) | 100 (≈ 282 µM) | 100 (≈ 282 µM) | 15 | 100 (≈ 282 µM) | 18 | 100 (≈ 282 µM) | 19 | 100 (≈ 282 µM) | 250 (≈ 704 µM) | 18 | 17 | 18
O=C1C(Cl)C(c2cc3ccccc3nc2S)N1c1ccccc1[N+](=O)[O-] (stereo unspecified) | 62.5 (≈ 162 µM) | 25 (≈ 64.8 µM) | 25 (≈ 64.8 µM) | 21 | 62.5 (≈ 162 µM) | 21 | 62.5 (≈ 162 µM) | 22 | 62.5 (≈ 162 µM) | 500 (≈ 1300 µM) | 22 | 23 | 24
O=C1C(Cl)C(c2cc3ccccc3nc2S)N1c1cccc([N+](=O)[O-])c1 (stereo unspecified) | 50 (≈ 130 µM) | 12.5 (≈ 32.4 µM) | 50 (≈ 130 µM) | 20 | 50 (≈ 130 µM) | 22 | 50 (≈ 130 µM) | 22 | 100 (≈ 259 µM) | 250 (≈ 648 µM) | 22 | 24 | 23
O=C1C(Cl)C(c2cc3ccccc3nc2S)N1c1ccc([N+](=O)[O-])cc1 (stereo unspecified) | 12.5 (≈ 32.4 µM) | 12.5 (≈ 32.4 µM) | 12.5 (≈ 32.4 µM) | 20 | 50 (≈ 130 µM) | 25 | 25 (≈ 64.8 µM) | 24 | 100 (≈ 259 µM) | 250 (≈ 648 µM) | 24 | 24 | 24
